# Test results as given in the METLIN SMRT retention time set (Domingo-Almenara et al. 2019).
# Test: gradient 5% acetonitrile 3 min, to 50% in 2 min, to 85% in 15 min, held 3 min, 100 µL/min
# Conditions: column: Zorbax Extend-C18 2.1 x 50 mm; eluents: water / acetonitrile, 0.1% formic acid
# Procedure, shortened: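 Standards, all pure, were combined into mixtures of ~100 molecules and run at 100 μL/min on a Zorbax Extend-C18 column (2.1 × 50 mm, 1.8 μm) with water and acetonitrile, each containing 0.1% formic acid. A coupled quadrupole time-of-flight mass spectrometer operated in positive and negative ionization mode. Retention time values come from computationally picked adduct peaks, each inspected manually.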
row,SMILES,RP-LC retention time [s]
1,O=C(Nc1cc(F)cc(F)c1)C1CCN(C(=O)c2ncn3c2COC(c2ccc(F)cc2)C3)CC1 (configuration not stated),858
2,Cc1ccc(C)c(N2CCN(C(=O)c3[nH]c(C)c(S(=O)(=O)N4CCCC4)c3C)CC2)c1,1020
3,CCOc1ccc2nc(C(=O)NC(C)(C)C)cn2n1,802
4,CC(C)Cn1c(=O)c2cc(C(=O)Nc3ccc(N4CCOCC4)cc3)nn2c2ccccc21,953
5,O=C(NCc1ccccn1)C1c2ccccc2C(=O)N(C2CCCC2)C1c1cccs1 (configuration not stated),709
6,CCCCNC(=O)C1c2cc(OC)c(OC)cc2C(=O)N(C)C1c1ccc(OC)cc1 (configuration not stated),764
7,O=C1Nc2ccccc2OC1C(=O)N1CCC(Cc2ccccc2)CC1 (configuration not stated),920
8,COC(=O)c1ncn2c1C(=O)N(Cc1cccc(C)c1)C(C)(C(=O)NCc1ccc(C)cc1)C2 (configuration not stated),801
9,CCOC(=O)c1ccc(NC(=O)C2CCCN(c3nnc(C)c4c(C)n(-c5ccccc5)nc34)C2)cc1 (configuration not stated),797
10,Cc1nc(NCc2ccco2)sc1C(=O)Nc1cccc(C(F)(F)F)c1,887
11,CCn1cnc(S(=O)(=O)N2CCCC(C(=O)N3CCN(c4ncccn4)CC3)C2)c1 (configuration not stated),657
12,CCOC(=O)c1noc2nc(C)nc(NCC3CCN(Cc4ccc(C)cc4)CC3)c12,705
13,CSc1ccc(NC(=O)c2cn3c(n2)COCC3)cc1,684
14,CC(=O)Nc1ccc(CC(=O)N2CCCC(c3nc(-c4ccc(NC(C)=O)cc4)no3)C2)cc1 (configuration not stated),675
15,CCOC(=O)c1nc(Nc2ccc(F)c(Cl)c2)c2ccccc2n1,971
16,COCCNc1c(-c2cccc(OC)c2)nc2sc(C(=O)N(C)C)c(C)n12,698
17,CCCn1c(=O)sc2cc(S(=O)(=O)N3CCC(C(=O)N4CCOCC4)CC3)ccc21,770
18,O=C(NCCn1c(-c2ccc(F)cc2)nc2cccnc21)NCc1ccccc1,684
19,COc1ccc(-c2csc(NC(=O)Nc3c(F)cccc3F)n2)cc1OC,770
20,COc1ccc(NC(=O)N(C)CCc2noc(COc3ccccc3F)n2)c(OC)c1,877
21,COCCNC(=O)C1CCCN(C(=O)c2cccc(C(F)(F)F)c2)C1 (configuration not stated),693
22,Cc1ccc2nc(-c3cccc(S(=O)(=O)N4CC(C)OC(C)C4)c3)cn2c1 (configuration not stated),640
23,Cc1c(Cl)cccc1NC(=O)c1cccc([N+](=O)[O-])c1O,975
24,COc1ccc(N2CCN(c3cc(-c4nc(-c5ccccc5)no4)c4ccccc4n3)CC2)cc1,586
25,CC(C)NS(=O)(=O)c1ccc(Cl)c(-c2nnc(-c3ccccc3)o2)c1,977
26,CCOc1ccccc1NC(=O)N1CCC2(CC1)NC(=O)c1ccc(Cl)cc1N2C,858
27,CCS(=O)(=O)c1ccc2c(c1)N(Cc1nc(-c3ccccc3OC)no1)C(=O)CO2,810

row,SMILES,RP-LC retention time [s]
1,CCCCN1CN=C(Nc2nc(C)c3ccccc3n2)NC1,680
2,O=C(c1ccc2c(c1)OCO2)N1C[C@@H](CO)[C@H](c2ccncc2)C1,558
3,CCC(C)(C)NC(=O)Cn1ncc2c(N3CCN(c4ccccn4)CC3)ncnc21,587
4,CCS(=O)(=O)c1nc2ccc(NS(=O)(=O)c3ccccc3F)cc2s1,835
5,CC(C)CNC(=O)C1CCN(C(=O)c2ncn3c2COC(c2ccccc2)C3)CC1 (configuration not stated),702
6,CCCN1C(=O)COc2cc(-c3noc(C(=O)NCC4CCCN4CC)n3)ccc21 (configuration not stated),645
7,Cc1cnc(-n2nnc(C(=O)N3CCOCC3)c2C)s1,658
8,CCc1ccc(NC(=O)N2CCC(n3cnc4cc(F)ccc4c3=O)CC2)cc1,867
9,O=C(Cc1c(F)cccc1Cl)Nc1nc2c(s1)CN(S(=O)(=O)c1ccccc1)CC2,950
10,O=C(NC1CC1)[C@@H]1C[C@H](Oc2cccnc2)CN1C(=O)c1ccco1,538
11,CCCn1nnc(NCc2ccc(-c3ccc(Cl)cc3Cl)o2)n1,1200
12,CC(C)CNC(=O)CCc1nc2ccccc2n(CC(=O)Nc2ccc(C(C)C)cc2)c1=O,949
13,Clc1ccc(Cc2nnc3sc(-c4ccc5ccccc5n4)nn23)cc1,1210
14,CCC1=C(c2ccc(C)cc2)S(=O)(=O)N=C1N1CCC(C(=O)NC(C)Cc2ccco2)CC1 (configuration not stated),894
15,Cc1nc(C)c(C(=O)N2CC(n3cc(COc4ccc(F)cc4)nn3)C2)s1,729
16,Cc1ccc2c(=O)c(C(=O)N3CCCC3)cn(CC(=O)Nc3ccc(F)c(F)c3)c2n1,720
17,CCn1cc(-c2ccc(Cl)cc2)cc1C(=O)NC(C)c1ccccn1 (configuration not stated),843
18,COc1ccc(OC)c(CN2CCCC(OCc3noc(-c4ccoc4)n3)C2)c1 (configuration not stated),702
19,CCCCc1ccc(NC(=O)CSc2ccc(N3CCCC(C(=O)NCCC)C3)nn2)cc1 (configuration not stated),860
20,O=C(CCCc1nc(-c2cccnc2)no1)Nc1nc(-c2ccccc2)cs1,865
21,COc1ccc(NC(=O)Nc2cccc(-c3ccc(N4CCOCC4)nn3)c2)cc1OC,586
22,CCc1nc(-c2csc(S(=O)(=O)N3CCCC(C(=O)NCc4cccnc4)C3)c2)no1 (configuration not stated),660
23,C(=C\c1ccccn1)/c1ccccn1,590
24,Cn1nc(CNC(=O)c2cccc(NC(=O)c3ccco3)c2)c2ccccc21,736
25,C/C=C(\C)C(=O)O[C@H]1CC[C@@]2(C)[C@@H]3CC[C@H]4[C@]5(O)C[C@H](O)[C@@]6(O)[C@@H](CN7C[C@@H](C)CC[C@H]7[C@@]6(C)O)[C@]5(O)C[C@@]42O[C@]13O,692
26,CCOC(=O)C1=CN(Cc2ccccc2)S(=O)(=O)N=C1C,970

# Next, values leading:
row,RP-LC retention time [s],SMILES
1,1020,Cc1sc(NC(=O)COc2ccc(Cl)cc2)nc1-c1ccc2c(c1)NC(=O)C(C)O2 (configuration not stated)
2,635,O=C(Cc1nnc(-c2cnccn2)o1)NCc1ccccc1
3,619,Cc1ccc(CS(=O)(=O)N[C@@H]2CN(c3ncccn3)C[C@H]2CN(C)C)cc1
4,911,COc1cccc(-c2noc(Cn3ccn(-c4cc(C)ccc4C)c(=O)c3=O)n2)c1
5,584,COC(=O)c1c(C)[nH]c(C(=O)N2CCC(CC(=O)NCCN3CCOCC3)CC2)c1C
6,858,CCc1ccc(S(=O)(=O)N2CC(F)(F)C[C@H]2c2nnc(C)o2)cc1
7,1010,O=C(Cc1csc2nc(-c3cccc(Br)c3)cn12)Nc1cccc(F)c1
8,1100,CCc1cccc(NC(=O)Cn2cnc3c(sc4nc(-c5ccccc5)ccc43)c2=O)c1
9,678,N#Cc1cccc(-c2nc(-c3ccc4c(c3)nnn4CCN3CCCCC3)no2)c1
10,926,COCCc1noc(-c2nc(-c3ccccc3F)no2)n1
11,1010,COc1ccc(NC(=O)CSc2cc(N3CCN(c4ccccc4F)CC3)ncn2)cc1
12,1210,COc1ccc(CCc2nc(-c3ccc4oc(C)nc4c3)no2)cc1
13,805,COC(=O)c1nc(NC(=O)Cn2nc3c(cc2=O)CCCC3)sc1C(C)C
14,738,CCC(=O)N1CCc2cc(N3CC(C(=O)Nc4ccc(OC)c(F)c4)CC3=O)ccc21 (configuration not stated)
15,949,O=C(CN1C(=O)CC(c2ccccc2)=Nc2cccnc21)Nc1ccc(F)cc1F
16,627,CCN1CCN(C2CCN(C(=O)c3ccco3)CC2)C1=O
17,949,CCOc1ccc(-c2ccc(=O)n(Cc3nc(-c4cccc(OC)c4)no3)n2)cc1

row,RP-LC retention time [s],SMILES
1,941,CC1CCN(S(=O)(=O)c2ccc(-c3nnc(C(=O)N4CCCC4)o3)cc2)CC1
2,840,O=[N+]([O-])c1ccccc1S(=O)(=O)c1ccccc1[N+](=O)[O-]
3,990,CCC(C)NC(=O)c1nccnc1NC(=O)c1ccc(C)cc1 (configuration not stated)
4,671,O=S(=O)(c1cc(-c2nnc(C3CCC3)o2)co1)N1CCN(c2ccccn2)CC1
5,760,O=C(C1CCN(c2nnc(-c3ccccc3)o2)CC1)N1CCCCC1
6,576,CNc1nccc(N2CCC(CC(=O)O)CC2)n1
7,817,CCn1cc(S(=O)(=O)Nc2cccc(F)c2)c2cccnc21
8,826,COc1cc(C(O)c2nc3ccccc3s2)cc(OC)c1OC (configuration not stated)
9,784,O=C(NCCc1ccco1)c1nc(Nc2ccc(F)cc2)c2ccccc2n1
10,997,C=CCN1N=C(C(=O)N2CCC(C)CC2)S(=O)(=O)c2ccc(Cl)cc21
11,740,Cc1nnc2cc(N3CCN(S(=O)(=O)c4ccc(Br)cc4)CC3)cnn12
12,765,Cc1nnc(N2CCCC(C(=O)NCc3ccccc3)C2)c2nn(-c3ccc(Cl)cc3)c(C)c12 (configuration not stated)
13,836,Cc1ccc(Nc2c(-c3cccc(Cl)c3)nc3cccc(C)n23)cc1
14,608,Cc1cc(C)c2c(N3CCCCC3)nc(C(=O)N3CCOCC3)nc2n1
15,577,O=C(NCc1ccc(N2CCCCC2)cc1)c1cn2c(n1)CSCC2
16,1150,COc1ccc(-c2csc(N3CCN(c4ccc([N+](=O)[O-])c(-n5nc(C)cc5C)c4)CC3)n2)cc1
17,740,CCCc1nc(NCc2ccc(OC)c(OC)c2)ncc1C(=O)O
